Test results: US6914045B2, “Glycopeptide antibiotics” (Wyeth Holdings Corporation, priority 2001, dated 2005)
≈ marks a conversion by molar mass, not a printed value.

Experiments:
Staphylococcus sp. = assay: in vitro antibacterial evaluation, MIC by broth dilution; format: cell-based; conditions: broth dilution, 18 hours at 35° C.
Method in brief: (§1)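 Broth dilution per NCCLS M7-A2 in Mueller-Hinton II medium, inoculum 5×10^5 CFU/mL, antibiotic range 64-0.06 μg/mL. MIC taken as lowest concentration inhibiting growth; Gram-positive panel includes recent clinical isolates resistant to methicillin, penicillin and/or vancomycin.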

Streptococcus sp. = assay: as above; format: cell-based; conditions: broth dilution, 18 hours at 35° C.
Method in brief: as §1

Enterococcus sp. = assay: as above; format: cell-based; conditions: broth dilution, 18 hours at 35° C.
Method in brief: as §1

[1] = test system: Staphylococcus aureus-SMITH (GC 4543); assay: acute lethal infection in mice; format: in vivo; conditions: acute lethal infection, female CD-1 mice, intraperitoneal challenge, intravenous 30 min. after infection, 7 day survival
Method in brief: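 Mice (female CD-1, 20+/−2 gm) receive bacteria ip in broth or hog gastric mucin, then test agent iv after 30 min. Median effective dose is calculated from 7 day survival pooled across 3 tests.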

Escherichia coli = assay: in vitro antibacterial evaluation, MIC by broth dilution; format: cell-based; conditions: 18 hours at 35° C.
[2] = anatomic pathology (histopathology of heart and kidney) in mice; format: in vivo; conditions: CD-1 mice, 20 mg/kg intravenously daily for 9 days, necropsy day 10, microscopic histopathology
Description: Samples of tissues from necropsied mice were formalin-fixed, paraffin-embedded, sectioned, stained with hematoxylin and eosin, and examined microscopically. Histopathologic findings were recorded. These findings were subjectively graded on a scale corresponding to slight, mild, moderate, marked and severe as compared to untreated controls.

For CC(C1CCCCC1)C1NC(=O)CNC(=O)C(CO)NC(=O)C(C(O)C2CNC(=N)N2C2OC(CO)C(O)C(O)C2O)NC(=O)C(C(O)C2CNC(=N)N2)NC(=O)C(Cc2ccc(OC3OC(CO)C(OC4OC5COC6(OC5C(O)C4O)C4CC5CC(C4)CC6C5)C(O)C3O)cc2)NC1=O (stereo not drawn) [Example 221, Cyclo[3-cyclohexyl-2-aminobutanoyl-O-[4-O-[4,6-O-(2-adamantylidene)hexopyranosyl]hexopyranosyl]tyrosyl-3-(2-iminoimidazolidin-4-yl)seryl-3-(3-hexopyranosyl-2-iminoimidazolidin-4-yl)serylserylglycyl]], the “MIC Staphylococcus aureus (ATCC 29213)” value (Staphylococcus sp.; strain ATCC 29213) was 1 µg/mL (≈ 0.698 µM), the “MIC Staphylococcus aureus (GC 1131)” value (Staphylococcus sp.; strain GC 1131) was 2 µg/mL (≈ 1.4 µM) and the “MIC Staphylococcus aureus (GC 3051)” value (Staphylococcus sp.; strain GC 3051) was 2 µg/mL (≈ 1.4 µM). For the same molecule, the “MIC Staphylococcus aureus (GC 3053)” value (Staphylococcus sp.; strain GC 3053) was 1 µg/mL (≈ 0.698 µM), the “MIC Staphylococcus aureus (GC 4541)” value (Staphylococcus sp.; strain GC 4541) was 2 µg/mL (≈ 1.4 µM) and the “MIC Staphylococcus aureus (GC 4542)” value (Staphylococcus sp.; strain GC 4542) was 2 µg/mL (≈ 1.4 µM). For the same molecule, the “MIC Staphylococcus aureus-SMITH (GC 4543)” value (Staphylococcus sp.; strain GC 4543) was 2 µg/mL (≈ 1.4 µM), the “MIC Staphylococcus aureus (GC 4544)” value (Staphylococcus sp.; strain GC 4544) was 2 µg/mL (≈ 1.4 µM) and the “MIC Staphylococcus aureus (GC 4545)” value (Staphylococcus sp.; strain GC 4545) was 2 µg/mL (≈ 1.4 µM). For the same molecule, the “MIC Staphylococcus haemolyticus (GC 4546)” value (Staphylococcus sp.; strain GC 4546) was 2 µg/mL (≈ 1.4 µM), the “MIC Coagulase Negative Staphylococcus (GC 4547)” value (Staphylococcus sp.; strain GC 4547) was 2 µg/mL (≈ 1.4 µM) and the “MIC Coagulase Negative Staphylococcus (GC 4548)” value (Staphylococcus sp.; strain GC 4548) was 1 µg/mL (≈ 0.698 µM). The “MIC Coagulase Negative Staphylococcus (GC 4549)” value (Staphylococcus sp.; strain GC 4549) was 1 µg/mL (≈ 0.698 µM), the “MIC Coagulase Negative Staphylococcus (GC 4551)” value (Staphylococcus sp.; strain GC 4551) was 2 µg/mL (≈ 1.4 µM) and the “MIC Streptococcus agalactiae (GC 4564)” value (Streptococcus sp.) was <0.12 µg/mL. For the same molecule, the “MIC Streptococcus pneumoniae (ATCC 6301)” value (Streptococcus sp.) was <0.12 µg/mL, the “MIC Streptococcus pneumoniae (GC 1894)” value (Streptococcus sp.) was <0.12 µg/mL and the “MIC Streptococcus pneumoniae (GC 4565)” value (Streptococcus sp.) was <0.12 µg/mL. For the same molecule, the “MIC Streptococcus pyogenes (GC 4563)” value (Streptococcus sp.) was <0.12 µg/mL, the “MIC Streptococcus pneumoniae (ATCC 6301)” value (Streptococcus sp.; inoculum 5×10^5 CFU/mL, strain ATCC 6301) was <0.12 µg/mL and the “MIC Streptococcus pneumoniae (GC 1894)” value (Streptococcus sp.; inoculum 5×10^5 CFU/mL, strain GC 1894) was <0.12 µg/mL. For the same molecule, the “MIC Streptococcus pyogenes (GC 4563)” value (Streptococcus sp.; inoculum 5×10^5 CFU/mL, strain GC 4563) was <0.12 µg/mL, the “MIC Streptococcus agalactiae (GC 4564)” value (Streptococcus sp.; inoculum 5×10^5 CFU/mL, strain GC 4564) was <0.12 µg/mL and the “MIC Streptococcus pneumoniae (GC 4565)” value (Streptococcus sp.; inoculum 5×10^5 CFU/mL, strain GC 4565) was <0.12 µg/mL. The “MIC Enterococcus avium (GC 4558)” value (Enterococcus sp.) was 2 µg/mL (≈ 1.4 µM), the “MIC Enterococcus faecalis (ATCC 29212)” value (Enterococcus sp.) was 2 µg/mL (≈ 1.4 µM) and the “MIC Enterococcus faecalis (GC 2242)” value (Enterococcus sp.) was 2 µg/mL (≈ 1.4 µM). For the same molecule, the “MIC Enterococcus faecalis (GC 2691)” value (Enterococcus sp.) was 2 µg/mL (≈ 1.4 µM), the “MIC Enterococcus faecalis (GC 3059)” value (Enterococcus sp.) was 1 µg/mL (≈ 0.698 µM) and the “MIC Enterococcus faecalis (GC 4552)” value (Enterococcus sp.) was 2 µg/mL (≈ 1.4 µM). For the same molecule, the “MIC Enterococcus faecalis (GC 4553)” value (Enterococcus sp.) was 2 µg/mL (≈ 1.4 µM), the “MIC Enterococcus faecalis (GC 4554)” value (Enterococcus sp.) was 2 µg/mL (≈ 1.4 µM) and the “MIC Enterococcus faecalis (GC 6189)” value (Enterococcus sp.) was 1 µg/mL (≈ 0.698 µM). For the same molecule, the “MIC Enterococcus faecium (GC 2243)” value (Enterococcus sp.) was 2 µg/mL (≈ 1.4 µM), the “MIC Enterococcus faecium (GC 4556)” value (Enterococcus sp.) was 2 µg/mL (≈ 1.4 µM) and the “MIC Enterococcus faecium (GC 4557)” value (Enterococcus sp.) was 1 µg/mL (≈ 0.698 µM). The “MIC Enterococcus faecalis (ATCC 29212)” value (Enterococcus sp.; inoculum 5×10^5 CFU/mL, strain ATCC 29212) was 2 µg/mL (≈ 1.4 µM), the “MIC Enterococcus faecalis (GC 2242)” value (Enterococcus sp.; inoculum 5×10^5 CFU/mL, strain GC 2242) was 2 µg/mL (≈ 1.4 µM) and the “MIC Enterococcus faecium (GC 2243)” value (Enterococcus sp.; inoculum 5×10^5 CFU/mL, strain GC 2243) was 2 µg/mL (≈ 1.4 µM). The “MIC Enterococcus faecalis (GC 2691)” value (Enterococcus sp.; inoculum 5×10^5 CFU/mL, strain GC 2691) was 2 µg/mL (≈ 1.4 µM), the “MIC Enterococcus faecalis (GC 3059)” value (Enterococcus sp.; inoculum 5×10^5 CFU/mL, strain GC 3059) was 1 µg/mL (≈ 0.698 µM) and the “MIC Enterococcus faecalis (GC 4552)” value (Enterococcus sp.; inoculum 5×10^5 CFU/mL, strain GC 4552) was 2 µg/mL (≈ 1.4 µM). For the same molecule, the “MIC Enterococcus faecalis (GC 4553)” value (Enterococcus sp.; inoculum 5×10^5 CFU/mL, strain GC 4553) was 2 µg/mL (≈ 1.4 µM), the “MIC Enterococcus faecalis (GC 4554)” value (Enterococcus sp.; inoculum 5×10^5 CFU/mL, strain GC 4554) was 2 µg/mL (≈ 1.4 µM) and the “MIC Enterococcus faecium (GC 4556)” value (Enterococcus sp.; inoculum 5×10^5 CFU/mL, strain GC 4556) was 2 µg/mL (≈ 1.4 µM). For the same molecule, the “MIC Enterococcus faecium (GC 4557)” value (Enterococcus sp.; inoculum 5×10^5 CFU/mL, strain GC 4557) was 1 µg/mL (≈ 0.698 µM), the “MIC Enterococcus avium (GC 4558)” value (Enterococcus sp.; inoculum 5×10^5 CFU/mL, strain GC 4558) was 2 µg/mL (≈ 1.4 µM) and the “MIC Enterococcus faecalis (GC 6189)” value (Enterococcus sp.; inoculum 5×10^5 CFU/mL, strain GC 6189) was 1 µg/mL (≈ 0.698 µM). The median effective dose (ED50), Staphylococcus aureus-SMITH (GC 4543) [1] was 0.03 mg/kg, the “MIC Escherichia coli (ATCC 25922)” value (Escherichia coli) was 64 µg/mL (≈ 44.6 µM) and the “MIC Escherichia coli (GC 4559)” value (Escherichia coli) was 32 µg/mL (≈ 22.3 µM). For the same molecule, the “MIC Escherichia coli (GC 4560)” value (Escherichia coli) was 2 µg/mL (≈ 1.4 µM), the “Anatomical Pathology (Day 10), Heart” value [2] was 0 and the “Anatomical Pathology (Day 10), Kidney” value [2] was 0.
